Reference: paper PMC8151276, “An Integrated Approach toward NanoBRET Tracers for Analysis of GPCR Ligand Engagement” (Molecules, 2021)

How the values were obtained:
Assay type in all cases: binding
CX3CR1 = biological target: T1, CX3CR1 (Homo sapiens, UniProt P49238); assay: NanoBRET screen HiBiT-CX3CR1 in HEK293
T1 construct: purchased Promega (in-house HiBiT-GPCR construct library, NanoBRET)
T1 sequence (P49238 1-355): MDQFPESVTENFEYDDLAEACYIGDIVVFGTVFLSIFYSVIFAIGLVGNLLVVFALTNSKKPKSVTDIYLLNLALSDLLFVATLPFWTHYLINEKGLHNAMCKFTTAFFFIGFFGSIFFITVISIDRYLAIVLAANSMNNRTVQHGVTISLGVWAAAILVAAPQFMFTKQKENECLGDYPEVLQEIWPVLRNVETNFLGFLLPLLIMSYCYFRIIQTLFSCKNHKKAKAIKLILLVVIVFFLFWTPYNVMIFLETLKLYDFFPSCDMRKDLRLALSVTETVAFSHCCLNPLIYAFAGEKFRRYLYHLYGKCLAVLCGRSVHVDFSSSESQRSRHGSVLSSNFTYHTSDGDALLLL
Description: (§1) Each tracer candidate was screened across the entire library of HiBiT-GPCR constructs using NanoBRET as the detection modality. As depicted in Figure 4A, the specificity of interactions was evaluated through decrease in BRET due to competitive displacement of a bound tracer by excess parental compound. Each tracer was analyzed for binding to each HiBiT-GPCR fusion in the absence and in the presence of competing parental compound. Briefly, HEK293 cells were transfected with HiBiT-GPCR constructs diluted into promoterless DNA to reduce expression and maximize translocation to the cell surface. Each tracer candidate was then screened at concentrations of 1 μM and 0.1 μM across cells expressing these fusions. Cells were treated for 1.5 h with tracer either alone or in the presence of 20 μM competing parental compound (i.e., control). BRET was measured upon addition of purified LgBiT and subsequent complementation with HiBiT genetically fused to a GPCR. The specificity of interactions was assessed through a decrease in BRET signal due to competitive displacement of the bound tracer. To further gauge the robustness of these interactions, the fold response over the control (i.e., BRETtracer/BRETcontrol) was calculated. We chose a 1.5-fold response, which translates to ≥7-fold signal over noise as the minimal threshold required to score an interaction as positive. […]. Below we highlight the screening results obtained for our exemplary fluorescent tracers based on Clozapine, Amitriptyline and AZD1283.
(§2) HiBiT-GPCR DNA constructs were diluted in 10 mM Tris pH 8 to a final concentration of 0.01 μg/μL, arrayed in 96-well plates and stored at −20 °C. For transfection, HEK293 cells were suspended in Opti-MEM (without phenol red) supplemented with 2% fetal bovine serum (Seradigm) and 100 units/mL penicillin–streptomycin (Gibco) at a final concentration of 220,000 cells/mL and dispensed into white 96-well plates at 90 μL/well. Subsequent transfections and screens were carried using an Agilent Bravo Automated Liquid Handling Platform. First, the 96-well HiBiT DNA arrays were diluted 25-fold in Opti-MEM (without serum or phenol red) to a final concentration of 0.0004 μg/μL and 20 μL of the diluted DNAs were transferred into new 96-well plates. Next, promoterless carrier DNA (1 μg/μL) was diluted 25-fold (0.04 μg/μL) and then dispensed into the diluted arrays at 20 μL/well. Following brief mixing, Viafect transfection reagent (Promega) diluted 16-fold into Opti-MEM was dispensed into the plates at 40 μL/well. After mixing by pipetting, plates were incubated for 10 min on the pipetting station deck. The DNA-transfection reagent complexes were then added to plates containing cells. To facilitate the screen, 10 μL of DNA-transfection reagent complexes were added in duplicates to the top 4 and bottom 4 rows, resulting in two identical 48-well arrays per plate. Plates with transfected cells were incubated for 18–20 h at 37 °C/5% CO2. A screen of each tracer across the entire library using two different concentrations requires duplicate plates of transfected cells. Depending on the number of tracers being screened, transfections can be scaled up using the same ratios. The next day, for each tracer, four 20× screening solutions in tracer dilution buffer (Promega) were prepared: two duplicates at final concentration of 20 μM and two duplicates at a final concentration of 2 μM. A competing unmodified compound was added to one of each duplicate at a final concentration of 400 μM. The four resulting solutions were diluted 4-fold in Opti-MEM without serum or phenol red to generate 5× solutions (5 µM and 0.5 µM tracer +/− 100 μM competing compound). To screen the library, a BioTek MultiFlo FX liquid dispenser was used to dispense 22.5 µL of tracer solution to the top 4 rows and 22.5 µL tracer + competing compound solution to the 4 bottom rows. Plates were briefly mixed on an orbital shaker and incubated for 1.5 h at room temperature. […]

FZD5 = biological target: T2, FZD5 (Homo sapiens, UniProt Q13467); assay: NanoBRET screen HiBiT-FZD5 in HEK293
T2 construct: purchased Promega (in-house HiBiT-GPCR construct library, NanoBRET)
Description: as §1, §2

P2RY6 = biological target: T3, P2RY6 (Homo sapiens, UniProt Q15077); assay: NanoBRET screen HiBiT-P2RY6 in HEK293
T3 construct: purchased Promega (in-house HiBiT-GPCR construct library, NanoBRET)
Description: as §1, §2

FPR1 = biological target: T4, FPR1 (Homo sapiens, UniProt P21462); assay: NanoBRET screen HiBiT-FPR1 in HEK293
T4 construct: purchased Promega (in-house HiBiT-GPCR construct library, NanoBRET)
T4 sequence (P21462 1-350): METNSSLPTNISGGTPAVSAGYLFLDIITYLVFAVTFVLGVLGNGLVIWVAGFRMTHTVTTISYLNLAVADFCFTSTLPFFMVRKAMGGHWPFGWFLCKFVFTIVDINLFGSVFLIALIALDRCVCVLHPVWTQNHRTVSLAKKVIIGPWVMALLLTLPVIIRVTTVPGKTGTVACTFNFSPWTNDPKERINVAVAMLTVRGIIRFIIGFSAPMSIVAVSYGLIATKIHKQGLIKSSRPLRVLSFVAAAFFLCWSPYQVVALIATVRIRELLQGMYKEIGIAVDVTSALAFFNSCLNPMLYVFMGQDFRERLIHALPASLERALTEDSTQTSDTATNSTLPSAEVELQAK
Description: as §1, §2

T2 sequence (Q13467 27-585): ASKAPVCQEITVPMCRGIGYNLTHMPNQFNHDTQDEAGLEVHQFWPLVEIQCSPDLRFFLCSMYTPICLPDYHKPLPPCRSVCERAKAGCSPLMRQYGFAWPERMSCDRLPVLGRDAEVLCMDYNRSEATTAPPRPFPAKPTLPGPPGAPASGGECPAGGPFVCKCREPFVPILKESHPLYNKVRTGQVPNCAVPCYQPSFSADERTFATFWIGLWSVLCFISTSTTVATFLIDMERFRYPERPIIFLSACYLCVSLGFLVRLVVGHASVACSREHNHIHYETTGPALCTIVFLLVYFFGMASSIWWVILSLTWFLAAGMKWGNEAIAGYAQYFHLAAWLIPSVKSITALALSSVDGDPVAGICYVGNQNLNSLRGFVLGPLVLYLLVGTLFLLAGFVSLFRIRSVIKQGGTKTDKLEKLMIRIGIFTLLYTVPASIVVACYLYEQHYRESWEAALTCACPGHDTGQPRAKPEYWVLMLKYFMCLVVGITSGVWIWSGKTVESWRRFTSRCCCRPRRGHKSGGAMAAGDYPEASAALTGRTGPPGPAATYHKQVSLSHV
T3 sequence (Q15077 whole entry): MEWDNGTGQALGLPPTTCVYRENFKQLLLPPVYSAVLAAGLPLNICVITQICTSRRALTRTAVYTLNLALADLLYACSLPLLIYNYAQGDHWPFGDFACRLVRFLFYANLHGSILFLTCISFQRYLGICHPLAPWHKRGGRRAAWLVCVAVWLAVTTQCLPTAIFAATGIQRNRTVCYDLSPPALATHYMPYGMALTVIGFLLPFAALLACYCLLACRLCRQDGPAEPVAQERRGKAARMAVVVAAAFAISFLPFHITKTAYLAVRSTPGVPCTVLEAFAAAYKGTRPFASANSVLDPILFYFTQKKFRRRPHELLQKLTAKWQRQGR

| Compound | NanoBRET Fold Response (CX3CR1; CX3CR1, 0.1μM tracer) | NanoBRET Fold Response (CX3CR1; CX3CR1, 1μM tracer) | NanoBRET Fold Response (FZD5; FZD5, 0.1μM tracer) | NanoBRET Fold Response (FZD5; FZD5, 1μM tracer) | NanoBRET Fold Response (P2RY6; P2RY6, 0.1μM tracer) | NanoBRET Fold Response (P2RY6; P2RY6, 1μM tracer) | NanoBRET Fold Response (FPR1; FPR1, 0.1μM tracer) | NanoBRET Fold Response (FPR1; FPR1, 1μM tracer) | NanoBRET Fold Response (CX3CR1; CX3CR1, tracer 0.1μM) | NanoBRET Fold Response (CX3CR1; CX3CR1, tracer 1μM) | NanoBRET Fold Response (FZD5; FZD5, tracer 0.1μM) | NanoBRET Fold Response (FZD5; FZD5, tracer 1μM) | NanoBRET Fold Response (P2RY6; P2RY6, tracer 0.1μM) | NanoBRET Fold Response (P2RY6; P2RY6, tracer 1μM) | NanoBRET Fold Response (FPR1; FPR1, tracer 0.1μM) | NanoBRET Fold Response (FPR1; FPR1, tracer 1μM) | other results |
| --- | --- | --- | --- | --- | --- | --- | --- | --- | --- | --- | --- | --- | --- | --- | --- | --- | --- |
| COc1ccc2[nH]c(-c3ccc(CNC(=O)CCOCCOCCOCCOCCNC(=O)CCc4ccc5n4[B-](F)(F)[N+]4=C(c6ccc[nH]6)C=CC4=C5)cc3)c(CCNC(C)=O)c2n1 [AzomelatoninICO9-2-NB590] |  |  |  |  |  |  |  |  |  |  |  |  |  |  |  |  | NanoBRET Fold Response (CX3CR1; 0.1μM tracer): 1.07; NanoBRET Fold Response (CX3CR1; 1μM tracer): 1.19; NanoBRET Fold Response (FZD5; 0.1μM tracer): 0.97; NanoBRET Fold Response (FZD5; 1μM tracer): 0.93; NanoBRET Fold Response (P2RY6; 0.1μM tracer): 1.40; NanoBRET Fold Response (P2RY6; 1μM tracer): 1.09; NanoBRET Fold Response (FPR1; 0.1μM tracer): 1.02; NanoBRET Fold Response (FPR1; 1μM tracer): 0.90 |
| O=C(CCOCCOCCOCCOCCNC(=O)CCc1ccc2n1[B-](F)(F)[N+]1=C(c3ccc[nH]3)C=CC1=C2)NCCCN1CCN(C2=Nc3cc(Cl)ccc3Nc3ccccc32)CC1 [Clozapine-a-2-NB590] | 1.08 | 1.07 | 1.15 | 0.95 | 1.02 | 0.92 | 1.01 | 1.22 |  |  |  |  |  |  |  |  |  |
| CN1CCN(C2=Nc3cc(Cl)ccc3Nc3ccc(CNC(=O)CCOCCOCCOCCOCCNC(=O)CCc4ccc5n4[B-](F)(F)[N+]4=C(c6ccc[nH]6)C=CC4=C5)cc32)CC1 [Clozapine-b-2-NB590] | 0.98 |  | 1.00 | 1.04 | 1.04 | 0.98 | 0.98 | 1.00 |  |  |  |  |  |  |  |  |  |
| CN1CCN(C2=Nc3cc(Cl)ccc3N(CC(=O)NCCOCCOCCOCCOCCNC(=O)CCc3ccc4n3[B-](F)(F)[N+]3=C(c5ccc[nH]5)C=CC3=C4)c3ccccc32)CC1 [Clozapine-c-2-NB590] | 0.95 | 0.92 | 1.00 | 1.04 | 0.97 | 0.98 | 0.98 | 1.04 |  |  |  |  |  |  |  |  |  |
| O=C(CCOCCOCCOCCOCCNC(=O)CCc1ccc2n1[B-](F)(F)[N+]1=C(c3ccc[nH]3)C=CC1=C2)NCCCN1CCN(C2=Nc3ccccc3Oc3ccc(Cl)cc32)CC1 [Loxapine-a-2-NB590] |  |  |  |  |  |  |  |  | 1.05 | 0.91 | 1.01 | 0.89 | 1.26 | 0.94 | 0.99 | 1.10 |  |
| COc1ccccc1N1CCN(CCCCN2C(=O)c3ccc(CNC(=O)CCOCCOCCOCCOCCNC(=O)CCc4ccc5n4[B-](F)(F)[N+]4=C(c6ccc[nH]6)C=CC4=C5)cc3C2=O)CC1 [NAN-190-2-NB590] |  |  |  |  |  |  |  |  | 0.99 | 0.86 | 0.97 | 1.00 | 0.96 | 1.17 | 1.09 | 1.04 |  |
